Laboratory results taken from patent publication US20230312587A1, “PTERIDINONE COMPOUNDS AND USES THEREOF” (Vertex Pharmaceutical Incorporated, priority 2018, published 2023).
Read-outs that look alike come from different tables or passages of the source.

Key:
Plk1 = Plk1 (Homo sapiens (Human), UniProt P53350); experiment: PLK1 inhibition assay (radioactive-phosphate incorporation); format: biochemical; conditions: Ki(app), read-out: PLK1 - 33P.ENZ - CB 10 Ki
Summary of the method: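 Radioactive-phosphate incorporation with 15 nM Plk1 and 9 µM Sam68 substrate, 20 µM [γ-33P]ATP, in 25 mM HEPES pH 7.5, 10 mM MgCl2, 25 mM NaCl, 2 mM DTT, 1.5% DMSO, room temperature, 45 min. Stopped with TCA/cold ATP, filtered, scintillation counted. Ki(app) from non-linear regression of background-corrected initial rates.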

[1] = test system: Colo205-TCF/LEF-Luciferase (Luc) tumor; experiment: In vivo inhibition of TCF/LEF reporter activity in Colo-205 tumors; parameters: concentration or dose not given beside the values; conditions: TCF/LEF luciferase reporter in Colo-205 tumors, nu/nu mice, oral gavage
Summary of the method: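 Female nu/nu mice carried subcutaneous Colo205-TCF/LEF-luciferase tumours (200–500 mm^3), n=4 per group. Compound was given by oral gavage in 1:3:5:1 EtOH:DMSO:PEG-400:H2O at 10 ml/kg, with vehicle as control. Luciferase activity in tumour lysates (Steady-Glo) was normalised to BCA protein.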

[2] = test system: non-small cell lung cancer (NSCLC) adenocarcinoma line D33966; experiment: In vivo efficacy, NSCLC patient derived xenograft OD33966; parameters: species or system nu/nu mice; conditions: NSCLC PDX OD33966, oral
Experimental: Female immune deficient mice (Charles River, 4-6 wks age) were anesthetized with Ketamine-Xylazine (140 mg/kg-14 mg/kg ip) and shaved. Puralube eye ointment was applied to the eyes to prevent desiccation of the corneas. Betadine and 70% ethanol was applied to the shaved location to sterilize the skin at the location of the incision. The animals were placed in a biosafety cabinet for the duration of the surgery. Using scissors, an 8 to 10 mm incision was made in the lateral flank of the skin. A tumor fragment weighing between 50 and 150 mg was placed under the skin at the incision site using forceps, and staples were used to close the incision. The staples were removed 5 to 7 days after surgery. Starting approximately two weeks after implantation, animals were weighed, and tumors were measured using caliper twice weekly. Tumor volume was calculated using the formula: volume=length×width^2×0.52.
Compound administration began when xenografts reached approximately 100-300 mm3 and continued until control xenografts reached […] of the animal's body weight. Test compounds were administered orally by gastric gavage. Percent tumor growth inhibition (TG) was calculated on the indicated treatment day. Percent TGI is defined as: [1−(del T/del C)]×100%, where del T is the final minus initial average volumes of the treated group, and del C is the final minus initial average volumes of the control group. […] The tested compounds were administered orally. Vehicle control consisted of either 0.5% methylcellulose/0.1% sodium lauryl sulfate or 20% captisol. Tumor volumes were determined by caliper measurement twice a week.

[3] = Mus musculus, 336 h, 100 mpk qd, treatment day 14, read-out: % TGI
[4] = Mus musculus, 288 h, 100 mpk qd, treatment day 12, read-out: % TGI

Chain of Plk1 (P53350 whole entry, species assumed): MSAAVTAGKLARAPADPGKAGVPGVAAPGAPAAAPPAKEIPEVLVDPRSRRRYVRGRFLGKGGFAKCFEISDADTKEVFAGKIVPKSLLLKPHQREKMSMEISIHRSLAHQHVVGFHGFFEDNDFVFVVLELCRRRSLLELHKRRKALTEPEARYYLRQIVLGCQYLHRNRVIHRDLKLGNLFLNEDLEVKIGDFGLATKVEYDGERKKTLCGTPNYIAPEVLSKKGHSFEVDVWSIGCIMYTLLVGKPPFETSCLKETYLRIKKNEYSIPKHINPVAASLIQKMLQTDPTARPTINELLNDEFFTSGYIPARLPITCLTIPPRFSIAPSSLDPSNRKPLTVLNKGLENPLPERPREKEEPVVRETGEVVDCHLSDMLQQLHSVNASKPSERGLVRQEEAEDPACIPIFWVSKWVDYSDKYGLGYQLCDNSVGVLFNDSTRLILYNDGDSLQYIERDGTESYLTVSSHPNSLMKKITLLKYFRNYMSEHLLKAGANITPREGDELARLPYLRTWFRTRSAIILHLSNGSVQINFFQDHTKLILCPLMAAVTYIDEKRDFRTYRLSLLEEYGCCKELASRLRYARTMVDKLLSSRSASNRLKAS

Structure (SMILES)	Ki (Plk1)	Percent Remaining Activity at 8 hrs after Dosing [1]	inhibition in vivo at 100 mg/kg [2, 3]	other results
Cc1nc(NCc2cnn(CCc3ccc(F)cc3)c2)nc2c1N(C)C(=O)[C@H](C)N2C [Compound 8, (7S)-2-(((1-(4-fluorophenethyl)-1H-pyrazol-4-yl)methyl)amino)-4,5,7,8-tetramethyl-7,8-dihydropteridin-6(5H)-one]	> 4 µM			
Cc1nc(NCc2cnn(CC3CCC3)c2)nc2c1N(C)C(=O)[C@H](C)N2C [Compound 7, (7S)-2-(((1-(cyclobutylmethyl)-1H-pyrazol-4-yl)methyl)amino)-4,5,7,8-tetramethyl-7,8-dihydropteridin-6(5H)-one]	> 4 µM			
COc1c(F)cc(Cn2cc(CNc3nc(C)c4c(n3)N(C)[C@@H](C)C(=O)N4)cn2)cc1F [Compound 46, (7S)-2-(((1-(3,5-difluoro-4-methoxybenzyl)-1H-pyrazol-4-yl)methyl)amino)-4,7,8-trimethyl-7,8-dihydropteridin-6(5H)-one]	> 4 µM	20%	93.3%	
Cc1cc(F)ncc1Cn1cc(CNc2nc(C)c3c(n2)N(C)[C@@H](C)C(=O)N3)cn1 [Compound 94, (7S)-2-(((1-((6-fluoro-4-methylpyridin-3-yl)methyl)-1H-pyrazol-4-yl)methyl)amino)-4,7,8-trimethyl-7,8-dihydropteridin-6(5H)-one]			94.5%	
COc1cc(F)ccc1Cn1cc(CNc2nc(C)c3c(n2)N(C)[C@@H](C)C(=O)N3)cn1 [Compound 83, (7S)-2-(((1-(4-fluoro-2-methoxybenzyl)-1H-pyrazol-4-yl)methyl)amino)-4,7,8-trimethyl-7,8-dihydropteridin-6(5H)-one]			97.2%	
Cc1nc(N[C@@H]2CC[C@@H](Oc3cc(F)c(F)c(F)c3)C2)nc2c1N(C)C(=O)[C@H](C)N2C [Compound 272, (S)-4,5,7,8-tetramethyl-2-(((1R,3R)-3-(3,4,5-trifluorophenoxy)cyclopentyl)amino)-7,8-dihydropteridin-6(5H)-one]		14%	77.9%	
Cc1nc(N[C@H]2C[C@H](Oc3ccnc(C(F)(F)F)c3)C2)nc2c1NC(=O)[C@H](C)N2C [Compound 335, (7S)-4,7,8-trimethyl-2-((trans-3-((2-(trifluoromethyl)pyridin-4-yl)oxy)cyclobutyl)amino)-7,8-dihydropteridin-6(5H)-one]	> 4 µM	18%		
Cc1nc(NCc2cnn(CCc3ccc(F)cc3)c2)nc2c1NC(=O)[C@H](C)N2C [Compound 6, (7S)-2-(((1-(4-fluorophenethyl)-1H-pyrazol-4-yl)methyl)amino)-4,7,8-trimethyl-7,8-dihydropteridin-6(5H)-one]	> 4 µM			
Cc1nc(N[C@H]2C[C@@H](Oc3cc(F)c(F)c(F)c3)C2)nc2c1NC(=O)[C@H](C)N2C [Compound 247, (7S)-4,7,8-trimethyl-2-((cis-3-(3,4,5-trifluorophenoxy)cyclobutyl)amino)-7,8-dihydropteridin-6(5H)-one]	> 4 µM			
CC(=O)N(Cc1cnn(Cc2ccc(C(F)(F)F)nc2)c1)c1nc(C)c2c(n1)N(C)[C@@H](C)C(=O)N2 [Compound 405, (7S)-N-((1-((6-(trifluoromethyl)pyridin-3-yl)methyl)-1H-pyrazol-4-yl)methyl)-N-(4,7,8-trimethyl-6-oxo-5,6,7,8-tetrahydropteridin-2-yl)acetamide]				inhibition in vivo at 100 mg/kg [2, 4]: 91%
Cc1nc(N[C@H]2C[C@H](Oc3cc(F)c(F)c(F)c3)C2)nc2c1NC(=O)[C@H](C)N2C [Compound 246, (7S)-4,7,8-trimethyl-2-((trans-3-(3,4,5-trifluorophenoxy)cyclobutyl)amino)-7,8-dihydropteridin-6(5H)-one]	> 4 µM	18%		inhibition in vivo at 100 mg/kg ([2]; Mus musculus, 264 h, 100 mpk qd, treatment day 11, read-out: % TGI): 82.6%
Cc1nc(N[C@@H]2CC[C@@H](n3ccc(C(F)(F)F)n3)C2)nc2c1NC(=O)[C@H](C)N2C (single isomer, unassigned) [Compound 311]	> 4 µM			
CC[C@H]1C(=O)Nc2cnc(NCc3cnn(Cc4ccc(F)cc4)c3)nc2N1C [Compound 9, (7S)-7-ethyl-2-(((1-(4-fluorobenzyl)-1H-pyrazol-4-yl)methyl)amino)-8-methyl-7,8-dihydropteridin-6(5H)-one]	> 4 µM			
Cc1nc(NCc2cnn(Cc3ccc(F)cc3)c2)nc2c1NC(=O)[C@H](C)N2C [Compound 4, (7S)-2-(((1-(4-fluorobenzyl)-1H-pyrazol-4-yl)methyl)amino)-4,7,8-trimethyl-7,8-dihydropteridin-6(5H)-one]	> 4 µM	23%		
Cc1nc(N(C)Cc2cnn(Cc3ccc(C(F)(F)F)nc3)c2)nc2c1NC(=O)[C@H](C)N2C [Compound 403, (7S)-4,7,8-trimethyl-2-(methyl((1-((6-(trifluoromethyl)pyridin-3-yl)methyl)-1H-pyrazol-4-yl)methyl)amino)-7,8-dihydropteridin-6(5H)-one]				inhibition in vivo at 100 mg/kg [2, 4]: 103%
Cc1nc(NCc2cnn(Cc3ccc(F)cc3)c2)nc2c1N(C)C(=O)[C@H](C)N2C [Compound 1, (7S)-2-(((1-(4-fluorobenzyl)-1H-pyrazol-4-yl)methyl)amino)-4,5,7,8-tetramethyl-7,8-dihydropteridin-6(5H)-one]	> 4 µM	32%		inhibition in vivo at 200 mg/kg ([2]; Mus musculus, 456 h, 200 mpk bid, treatment day 19, read-out: % TGI): 94.5%
Cc1nc(NCc2cnn(Cc3ccc(C(F)(F)F)nc3)c2)nc2c1NC(=O)[C@H](C)N2C [Compound 136, (7S)-4,7,8-trimethyl-2-(((1-((6-(trifluoromethyl)pyridin-3-yl)methyl)-111-pyrazol-4-yl)methyl)amino)-7,8-dihydropteridin-6(5H)-one]	> 4 µM	24%		% TGI ([2]; 100 mpk qd, treatment day 14): 106.65%
Cc1nc(NCc2cnn(Cc3cc(C(F)(F)F)nn3C)c2)nc2c1NC(=O)[C@H](C)N2C [Compound 160, (7S)-4,7,8-trimethyl-2-(((1-((1-methyl-3-(trifluoromethyl)-1H-pyrazol-5-yl)methyl)-1H-pyrazol-4-yl)methyl)amino)-7,8-dihydropteridin-6(5H)-one]	> 4 µM	18%		
Cc1nc(N[C@H]2C[C@H](Oc3cc(F)c(F)c(F)c3)C2)nc2c1N(C)C(=O)[C@H](C)N2C [Compound 253, (7S)-4,5,7,8-tetramethyl-2-((trans-3-(3,4,5-trifluorophenoxy)cyclobutyl)amino)-7,8-dihydropteridin-6(5H)-one]	> 4 µM	15%	96.6%	
Cc1nc(NCc2cnn(Cc3ccc(F)nc3)c2)nc2c1NC(=O)[C@H](C)N2C [Compound 77]		30%	98.5%	
